Columns and labels:
Assay type in all cases: functional
[1] = tested on: CCRF-CEM; assay: Growth inhibition of human CCRF-CEM cells
[2] = tested on: OVCAR-8; assay: Growth inhibition of human OVCAR8 cells
[3] = tested on: SK-MEL-2; assay: Growth inhibition of human SK-MEL-2 cells
[4] = tested on: SK-MEL-28; assay: Growth inhibition of human SK-MEL-28 cells
[5] = tested on: K562; assay: Growth inhibition of human K562 cells
[6] = tested on: EKVX; assay: Growth inhibition of human EKVX cells
[7] = Growth inhibition of human Hs 578T cells
[8] = tested on: MDA-MB-231; assay: Growth inhibition of human MDA-MB-231 cells
[9] = tested on: NCI-H522; assay: Growth inhibition of human NCI-H522 cells
[10] = tested on: HOP-92; assay: Growth inhibition of human HOP92 cells
[11] = tested on: U-251; assay: Growth inhibition of human U251 cells
[12] = tested on: L1210; assay: Growth inhibition of mouse L1210 cells assessed as zone units at 50 ug/disk by disk diffusion agar colony formation assay
[13] = Growth inhibition of human MCF7/ADR resistant cells; conditions: NCI/ADR-RES
[14] = tested on: P388; assay: Growth inhibition of mouse P388 cells assessed as zone units at 50 ug/disk by disk diffusion agar colony formation assay
[15] = tested on: KM12; assay: Growth inhibition of human KM12 cells
[16] = tested on: MOLT-4; assay: Growth inhibition of human MOLT4 cells
[17] = tested on: HL-60(TB); assay: Growth inhibition of human HL-60(TB) cells
[18] = tested on: A498; assay: Growth inhibition of human A498 cells
[19] = tested on: OVCAR-3; assay: Growth inhibition of human OVCAR-3 cells
[20] = tested on: HT-29; assay: Growth inhibition of human HT-29 cells
[21] = tested on: MDA-MB-435; assay: Growth inhibition of human MDA-MB-435 cells
[22] = tested on: SNB-75; assay: Growth inhibition of human SNB75 cells
[23] = tested on: SR; assay: Growth inhibition of human SR cells
[24] = tested on: IGROV-1; assay: Growth inhibition of human IGROV1 cells
[25] = tested on: Malme-3M; assay: Growth inhibition of human MALME-3M cells
[26] = Growth inhibition of human […] cells
[27] = tested on: PO3; assay: Growth inhibition of mouse PO3 cells assessed as zone units at 50 ug/disk by disk diffusion agar colony formation assay
[28] = tested on: SF-268; assay: Growth inhibition of human SF268 cells
[29] = Growth inhibition of mouse M17/ADR cells assessed as zone units at 50 ug/disk by disk diffusion agar colony formation assay
[30] = tested on: HOP-62; assay: Growth inhibition of human HOP62 cells
[31] = tested on: HCT-116; assay: Growth inhibition of human HCT116 cells
[32] = tested on: MCF7; assay: Growth inhibition of human MCF7 cells
[33] = tested on: DU-145; assay: Growth inhibition of human DU145 cells
[34] = tested on: COLO 205; assay: Growth inhibition of human COLO205 cells
[35] = tested on: SN12C; assay: Growth inhibition of human SN12C cells
[36] = tested on: OVCAR-5; assay: Growth inhibition of human OVCAR5 cells
[37] = tested on: SF-539; assay: Growth inhibition of human SF539 cells
[38] = tested on: CAKI-1; assay: Growth inhibition of human Caki1 cells
[39] = tested on: SF-295; assay: Growth inhibition of human SF295 cells
[40] = tested on: NCI-H322M; assay: Growth inhibition of human NCI-H322M cells
[41] = tested on: 786-0; assay: Growth inhibition of human 786-0 cells
[42] = tested on: ACHN; assay: Growth inhibition of human ACHN cells
[43] = tested on: HCT-15; assay: Growth inhibition of human HCT15 cells
[44] = tested on: NCI-H226; assay: Growth inhibition of human NCI-H226 cells
[45] = tested on: RXF 393; assay: Growth inhibition of human […] cells
[46] = Growth inhibition of human H116 cells assessed as zone units at 50 ug/disk by disk diffusion agar colony formation assay
[47] = tested on: UACC-62; assay: Growth inhibition of human UACC62 cells
[48] = tested on: OVCAR-4; assay: Growth inhibition of human OVCAR4 cells
[49] = tested on: BT-549; assay: Growth inhibition of human BT549 cells
[50] = tested on: T47D; assay: Growth inhibition of human T47D cells
[51] = tested on: UO-31; assay: Growth inhibition of human UO31 cells
[52] = tested on: SK-MEL-5; assay: Growth inhibition of human SK-MEL-5 cells
[53] = tested on: UACC-257; assay: Growth inhibition of human UACC257 cells
[54] = tested on: NCI-H23; assay: Growth inhibition of human NCI-H23 cells
[55] = tested on: M14; assay: Growth inhibition of human M14 cells
[56] = tested on: SK-OV-3; assay: Growth inhibition of human SKOV3 cells
[57] = tested on: A549; assay: Growth inhibition of human A549 cells
[58] = tested on: SW-620; assay: Growth inhibition of human SW620 cells
[59] = tested on: HCC 2998; assay: Growth inhibition of human HCC2998 cells
[60] = tested on: MDA-N; assay: Growth inhibition of human MDA-N cells
[61] = tested on: NCI-H460; assay: Growth inhibition of human NCI-H460 cells
[62] = tested on: MC-38; assay: Growth inhibition of mouse C38 cells assessed as zone units at 50 ug/disk by disk diffusion agar colony formation assay
[63] = tested on: CX-1; assay: Growth inhibition of human CX-1 cells assessed as zone units at 50 ug/disk by disk diffusion agar colony formation assay
[64] = tested on: PC-3; assay: Growth inhibition of human PC3 cells

## CC1=C(CC/C(C)=C/CC[C@@]2(C)CC[C@@H]([C@H](C)C(=O)O)OO2)C(C)(C)CCC1 [EPIMUQUBILIN A]
[1]
  GI50: 61700 nM
[2]
  GI50: > 100000 nM
[3]
  GI50: > 100000 nM
[4]
  GI50: > 100000 nM
[5]
  GI50: > 100000 nM
[6]
  GI50: > 100000 nM
[7]
  GI50: > 100000 nM
[8]
  GI50: > 100000 nM
[9]
  GI50: 13800 nM
[10]
  GI50: > 100000 nM
[11]
  GI50: > 100000 nM
[12]
  Activity: 50 Zone units
[13]
  GI50: > 100000 nM
[14]
  Activity: 50 Zone units
[15]
  GI50: > 100000 nM
[16]
  GI50: 42600 nM
[17]
  GI50: 47800 nM
[18]
  GI50: > 100000 nM
[19]
  GI50: > 100000 nM
[20]
  GI50: > 100000 nM
[21]
  GI50: > 100000 nM
[22]
  GI50: > 100000 nM
[23]
  GI50: > 100000 nM
[24]
  GI50: 43600 nM
[25]
  GI50: > 100000 nM
[26]
  GI50: > 100000 nM
[27]
  Activity: 0 Zone units
[28]
  GI50: > 100000 nM
[29]
  Activity: 70 Zone units
[30]
  GI50: > 100000 nM

## C=C1CCCC(C)(C)C1CC[C@]1(C)CC[C@@H]([C@@H](C)C(=O)O)OO1 (some centres not stated) [EPINUAPAPUIN B]
[1]
  GI50: 2270 nM
[31]
  GI50: > 10000 nM
[2]
  GI50: > 10000 nM
[32]
  GI50: > 10000 nM
[3]
  GI50: > 10000 nM
[4]
  GI50: > 10000 nM
[33]
  GI50: > 10000 nM
[34]
  GI50: > 10000 nM
[6]
  GI50: > 10000 nM
[35]
  GI50: > 10000 nM
[36]
  GI50: > 10000 nM
[37]
  GI50: > 10000 nM
[38]
  GI50: > 10000 nM
[39]
  GI50: > 10000 nM
[40]
  GI50: > 10000 nM
[7]
  GI50: > 10000 nM
[8]
  GI50: > 10000 nM
[9]
  GI50: 2060 nM
[10]
  GI50: 6630 nM
[41]
  GI50: > 10000 nM
[11]
  GI50: > 10000 nM
[42]
  GI50: > 10000 nM
[43]
  GI50: > 10000 nM
[44]
  GI50: > 10000 nM
[12]
  Activity: 160 Zone units
[13]
  GI50: > 10000 nM
[45]
  GI50: > 10000 nM
[14]
  Activity: 160 Zone units
[15]
  GI50: 5730 nM
[46]
  Activity: 70 Zone units
[16]
  GI50: 7430 nM
[47]
  GI50: > 10000 nM
[48]
  GI50: > 10000 nM
[17]
  GI50: 2060 nM
[18]
  GI50: > 10000 nM
[19]
  GI50: > 10000 nM
[20]
  GI50: > 10000 nM
[49]
  GI50: > 10000 nM
[21]
  GI50: > 10000 nM
[50]
  GI50: > 10000 nM
[22]
  GI50: > 10000 nM
[51]
  GI50: > 10000 nM
[52]
  GI50: > 10000 nM
[23]
  GI50: 2720 nM
[53]
  GI50: > 10000 nM
[54]
  GI50: > 10000 nM
[24]
  GI50: 1730 nM
[55]
  GI50: > 10000 nM
[56]
  GI50: > 10000 nM
[57]
  GI50: > 10000 nM
[25]
  GI50: 3960 nM
[26]
  GI50: > 10000 nM
[27]
  Activity: 60 Zone units
[29]
  Activity: 210 Zone units
[58]
  GI50: > 10000 nM
[59]
  GI50: > 10000 nM
[60]
  GI50: > 10000 nM
[30]
  GI50: 9540 nM
[61]
  GI50: > 10000 nM

## C=C1CCC[C@H]2[C@](C)(CC[C@]3(C)CC[C@H]([C@@H](C)C(=O)O)OO3)[C@@H](C)CC[C@]12C [SIGMOSCEPTRELLIN A]
[1]
  GI50: 200 nM
[31]
  GI50: 1800 nM
[2]
  GI50: 1570 nM
[32]
  GI50: 1780 nM
[3]
  GI50: 2170 nM
[4]
  GI50: 3310 nM
[34]
  GI50: 2180 nM
[6]
  GI50: 1170 nM
[35]
  GI50: 1780 nM
[36]
  GI50: 1740 nM
[37]
  GI50: 1610 nM
[38]
  GI50: 1760 nM
[39]
  GI50: 1460 nM
[40]
  GI50: 1910 nM
[7]
  GI50: 1080 nM
[8]
  GI50: 3710 nM
[9]
  GI50: 120 nM
[10]
  GI50: 290 nM
[41]
  GI50: 610 nM
[11]
  GI50: 1730 nM
[42]
  GI50: 1380 nM
[43]
  GI50: 1890 nM
[44]
  GI50: 110 nM
[12]
  Activity: 230 Zone units
[45]
  GI50: 1220 nM
[14]
  Activity: 230 Zone units
[15]
  GI50: 940 nM
[62]
  Activity: 180 Zone units
[16]
  GI50: 980 nM
[47]
  GI50: 2320 nM
[48]
  GI50: 1890 nM
[17]
  GI50: 140 nM
[18]
  GI50: 1930 nM
[19]
  GI50: 1850 nM
[20]
  GI50: 1570 nM
[49]
  GI50: 1810 nM
[21]
  GI50: 1980 nM
[50]
  GI50: 2000 nM
[22]
  GI50: 1080 nM
[51]
  GI50: 1220 nM
[52]
  GI50: 2680 nM
[23]
  GI50: 1130 nM
[53]
  GI50: 3680 nM
[54]
  GI50: 2020 nM
[24]
  GI50: 120 nM
[55]
  GI50: 3290 nM
[56]
  GI50: 1570 nM
[63]
  Activity: 220 Zone units
[57]
  GI50: 1450 nM
[25]
  GI50: 1200 nM
[26]
  GI50: 1710 nM
[29]
  Activity: 290 Zone units
[58]
  GI50: 1570 nM
[64]
  GI50: 1690 nM
[59]
  GI50: 1550 nM
[60]
  GI50: 1830 nM
[30]
  GI50: 1050 nM
[61]
  GI50: 1590 nM

From ChEMBL document CHEMBL1141727, “Isolation and cytotoxic evaluation of marine sponge-derived norterpene peroxides” (J Nat Prod, 1998)
